Assay results: patent publication US11987564B2, “PTPRD inhibitors and uses thereof” (United States Government as represented by the Department …, priority 2021, dated 2024)

Experiments:
[1] = biological target: PTPRS (Homo sapiens, UniProt Q13332); test: pNPP hydrolysis by recombinant PTPRS phosphatase; assay type: biochemical
From the text: (§1) Human […] ([…]-pY-[…]) phosphopeptide (Pierce/ThermoFisher) were synthesized.

[2] = biological target: T1, PTPRJ (Homo sapiens, UniProt Q12913); test: pNPP hydrolysis by PTPRJ phosphatase; assay type: biochemical
T1 construct: purchased
T1 sequence (Q12913 36-1337): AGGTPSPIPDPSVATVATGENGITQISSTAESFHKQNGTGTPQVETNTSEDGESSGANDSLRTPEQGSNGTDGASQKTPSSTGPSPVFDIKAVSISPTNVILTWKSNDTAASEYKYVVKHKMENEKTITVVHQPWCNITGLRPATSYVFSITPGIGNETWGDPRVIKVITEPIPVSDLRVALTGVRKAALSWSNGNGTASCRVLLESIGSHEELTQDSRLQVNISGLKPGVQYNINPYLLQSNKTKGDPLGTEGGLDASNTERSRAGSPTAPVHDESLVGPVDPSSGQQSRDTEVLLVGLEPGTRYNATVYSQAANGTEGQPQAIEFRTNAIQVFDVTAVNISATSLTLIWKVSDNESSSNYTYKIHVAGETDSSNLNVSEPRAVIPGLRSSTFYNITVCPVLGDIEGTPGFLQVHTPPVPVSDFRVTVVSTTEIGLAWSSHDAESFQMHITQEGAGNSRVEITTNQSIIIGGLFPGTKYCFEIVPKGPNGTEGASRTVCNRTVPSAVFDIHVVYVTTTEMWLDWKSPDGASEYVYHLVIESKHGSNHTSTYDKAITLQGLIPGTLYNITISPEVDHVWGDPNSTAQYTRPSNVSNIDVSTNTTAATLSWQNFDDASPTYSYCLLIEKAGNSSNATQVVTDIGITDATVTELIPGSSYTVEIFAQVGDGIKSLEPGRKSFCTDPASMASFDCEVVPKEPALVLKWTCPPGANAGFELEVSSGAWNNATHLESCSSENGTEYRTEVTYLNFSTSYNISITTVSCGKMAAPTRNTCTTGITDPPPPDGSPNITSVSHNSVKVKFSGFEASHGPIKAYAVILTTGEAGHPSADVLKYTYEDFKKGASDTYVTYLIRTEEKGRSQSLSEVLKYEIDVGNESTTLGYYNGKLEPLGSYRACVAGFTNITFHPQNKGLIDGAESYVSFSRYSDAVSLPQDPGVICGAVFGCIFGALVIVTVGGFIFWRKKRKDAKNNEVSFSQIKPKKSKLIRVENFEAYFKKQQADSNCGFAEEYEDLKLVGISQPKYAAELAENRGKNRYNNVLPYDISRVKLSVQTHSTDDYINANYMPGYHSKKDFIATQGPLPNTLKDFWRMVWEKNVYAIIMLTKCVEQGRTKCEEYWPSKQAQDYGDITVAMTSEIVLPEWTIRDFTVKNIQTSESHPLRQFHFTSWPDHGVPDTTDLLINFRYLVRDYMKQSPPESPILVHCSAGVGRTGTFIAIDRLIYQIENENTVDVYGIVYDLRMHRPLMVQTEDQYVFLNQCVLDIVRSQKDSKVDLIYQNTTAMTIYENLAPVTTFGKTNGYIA
From the text: as §1

[3] = biological target: T2, PTPN1 (PTP1B) (Homo sapiens, UniProt P18031); test: pNPP hydrolysis by PTPN1 (PTP1B) phosphatase; assay type: biochemical; details: untitled table after Table 4; mean, SEM in wrapped line
T2 construct: purchased
T2 sequence (P18031 1-435): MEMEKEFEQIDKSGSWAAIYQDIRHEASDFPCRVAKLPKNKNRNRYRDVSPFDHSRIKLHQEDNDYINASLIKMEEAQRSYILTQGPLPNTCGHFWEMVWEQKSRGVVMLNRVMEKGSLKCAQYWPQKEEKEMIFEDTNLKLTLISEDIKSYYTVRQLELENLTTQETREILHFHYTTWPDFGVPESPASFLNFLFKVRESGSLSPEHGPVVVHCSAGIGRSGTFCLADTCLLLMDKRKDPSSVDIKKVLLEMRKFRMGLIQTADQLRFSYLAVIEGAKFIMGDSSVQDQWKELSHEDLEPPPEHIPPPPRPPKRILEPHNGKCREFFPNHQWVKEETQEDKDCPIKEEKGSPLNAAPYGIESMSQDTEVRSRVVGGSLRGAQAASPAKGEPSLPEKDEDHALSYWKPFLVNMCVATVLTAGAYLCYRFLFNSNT

[4] = biological target: recombinant PTPRD (Homo sapiens, UniProt P23468); test: pNPP hydrolysis by recombinant PTPRD phosphatase
Experimental: (§2) Phosphatase assays: Data for each assay type (3 wells/experimental condition, read using a Spectromax plate reader) was plotted vs time, and results derived from the slopes of linear regions were reported from triplicate independent experiments.
(§3) For assays of compound ligands that were likely pseudo-irreversible, 18 min preincubations were also added. For work determining the effect of flavonoids on pNPP hydrolysis, a 96 well half-area plate was prepared by first filling each well to be tested with 18 μL of 50 μM pNPP and 25 uL of running buffer, and 2 μL of DMSO containing the desired concentration of flavonoid and/or peptide. PTPRD phosphatase was diluted 1:50 in a dilution buffer.

[5] = biological target: PTPRF (Homo sapiens, UniProt P10586); test: pNPP hydrolysis by recombinant PTPRF phosphatase
Experimental: as §2, §3

[6] = tested on: wildtype C57BL/6J or PTPRD knockout mice
[7] = Table 4, mean (SEM) of three independent experiments, * = instability, no valid triplicate
[8] = untitled table after Table 4, mean, SEM in wrapped line
[9] = PTPRD IC50, Table 4, mean (SEM) of three independent experiments, * = instability, no valid triplicate
[10] = PTPRD IC50, untitled table after Table 4, mean, SEM in wrapped line, compounds with PTPRD IC50 <5 μM
[11] = PTPRF IC50, Table 4, mean (SEM) of three independent experiments, * = instability, no valid triplicate
[12] = PTPRF IC50, untitled table after Table 4, mean, SEM in wrapped line

Chain of PTPRF (P10586 30-1907, species assumed): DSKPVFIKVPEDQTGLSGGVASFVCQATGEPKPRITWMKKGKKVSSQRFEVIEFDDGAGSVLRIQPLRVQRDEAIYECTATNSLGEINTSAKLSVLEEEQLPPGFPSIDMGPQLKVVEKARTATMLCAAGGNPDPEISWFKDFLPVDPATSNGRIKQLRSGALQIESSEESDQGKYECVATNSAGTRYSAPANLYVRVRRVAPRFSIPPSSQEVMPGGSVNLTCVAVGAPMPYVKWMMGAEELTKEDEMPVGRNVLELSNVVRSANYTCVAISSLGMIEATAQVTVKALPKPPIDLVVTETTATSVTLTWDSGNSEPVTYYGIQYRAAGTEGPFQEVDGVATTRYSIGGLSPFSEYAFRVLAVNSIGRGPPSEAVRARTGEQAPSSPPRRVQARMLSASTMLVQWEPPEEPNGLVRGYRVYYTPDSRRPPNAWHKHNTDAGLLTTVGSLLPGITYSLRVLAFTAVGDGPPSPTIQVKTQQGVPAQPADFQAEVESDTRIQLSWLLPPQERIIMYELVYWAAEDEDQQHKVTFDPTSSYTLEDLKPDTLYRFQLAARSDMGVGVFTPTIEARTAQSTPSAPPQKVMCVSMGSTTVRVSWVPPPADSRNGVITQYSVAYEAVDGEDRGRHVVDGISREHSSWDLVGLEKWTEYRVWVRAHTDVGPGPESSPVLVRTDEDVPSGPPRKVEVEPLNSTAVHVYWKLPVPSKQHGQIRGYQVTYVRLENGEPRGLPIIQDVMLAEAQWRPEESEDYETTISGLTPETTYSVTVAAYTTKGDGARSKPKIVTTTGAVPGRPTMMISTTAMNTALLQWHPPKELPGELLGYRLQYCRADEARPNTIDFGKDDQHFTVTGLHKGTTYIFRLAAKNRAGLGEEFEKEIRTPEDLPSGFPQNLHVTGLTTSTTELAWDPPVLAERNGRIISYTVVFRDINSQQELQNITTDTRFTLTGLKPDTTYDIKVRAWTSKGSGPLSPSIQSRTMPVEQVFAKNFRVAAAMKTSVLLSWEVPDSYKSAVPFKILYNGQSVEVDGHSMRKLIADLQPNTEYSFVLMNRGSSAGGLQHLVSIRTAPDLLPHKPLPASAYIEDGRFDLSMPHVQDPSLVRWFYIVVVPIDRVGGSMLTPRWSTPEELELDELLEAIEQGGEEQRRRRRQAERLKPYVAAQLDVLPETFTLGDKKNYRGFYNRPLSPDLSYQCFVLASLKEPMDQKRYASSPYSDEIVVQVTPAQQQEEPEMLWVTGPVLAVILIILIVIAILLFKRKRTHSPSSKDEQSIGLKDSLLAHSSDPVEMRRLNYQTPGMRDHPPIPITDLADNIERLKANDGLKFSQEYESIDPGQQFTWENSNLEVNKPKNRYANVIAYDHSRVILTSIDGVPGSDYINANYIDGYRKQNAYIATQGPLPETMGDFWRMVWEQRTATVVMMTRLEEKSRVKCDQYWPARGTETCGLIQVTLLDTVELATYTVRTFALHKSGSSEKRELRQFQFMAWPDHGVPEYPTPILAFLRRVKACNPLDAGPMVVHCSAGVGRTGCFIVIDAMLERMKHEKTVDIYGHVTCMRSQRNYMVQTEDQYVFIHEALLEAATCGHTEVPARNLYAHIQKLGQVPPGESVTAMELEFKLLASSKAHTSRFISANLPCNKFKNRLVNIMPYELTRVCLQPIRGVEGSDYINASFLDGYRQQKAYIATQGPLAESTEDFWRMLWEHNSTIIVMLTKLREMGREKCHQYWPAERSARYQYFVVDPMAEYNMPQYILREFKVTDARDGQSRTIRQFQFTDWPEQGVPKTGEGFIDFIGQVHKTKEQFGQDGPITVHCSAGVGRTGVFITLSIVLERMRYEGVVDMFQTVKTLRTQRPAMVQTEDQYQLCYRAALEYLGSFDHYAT
Chain of PTPRS (Q13332 30-1948, species assumed): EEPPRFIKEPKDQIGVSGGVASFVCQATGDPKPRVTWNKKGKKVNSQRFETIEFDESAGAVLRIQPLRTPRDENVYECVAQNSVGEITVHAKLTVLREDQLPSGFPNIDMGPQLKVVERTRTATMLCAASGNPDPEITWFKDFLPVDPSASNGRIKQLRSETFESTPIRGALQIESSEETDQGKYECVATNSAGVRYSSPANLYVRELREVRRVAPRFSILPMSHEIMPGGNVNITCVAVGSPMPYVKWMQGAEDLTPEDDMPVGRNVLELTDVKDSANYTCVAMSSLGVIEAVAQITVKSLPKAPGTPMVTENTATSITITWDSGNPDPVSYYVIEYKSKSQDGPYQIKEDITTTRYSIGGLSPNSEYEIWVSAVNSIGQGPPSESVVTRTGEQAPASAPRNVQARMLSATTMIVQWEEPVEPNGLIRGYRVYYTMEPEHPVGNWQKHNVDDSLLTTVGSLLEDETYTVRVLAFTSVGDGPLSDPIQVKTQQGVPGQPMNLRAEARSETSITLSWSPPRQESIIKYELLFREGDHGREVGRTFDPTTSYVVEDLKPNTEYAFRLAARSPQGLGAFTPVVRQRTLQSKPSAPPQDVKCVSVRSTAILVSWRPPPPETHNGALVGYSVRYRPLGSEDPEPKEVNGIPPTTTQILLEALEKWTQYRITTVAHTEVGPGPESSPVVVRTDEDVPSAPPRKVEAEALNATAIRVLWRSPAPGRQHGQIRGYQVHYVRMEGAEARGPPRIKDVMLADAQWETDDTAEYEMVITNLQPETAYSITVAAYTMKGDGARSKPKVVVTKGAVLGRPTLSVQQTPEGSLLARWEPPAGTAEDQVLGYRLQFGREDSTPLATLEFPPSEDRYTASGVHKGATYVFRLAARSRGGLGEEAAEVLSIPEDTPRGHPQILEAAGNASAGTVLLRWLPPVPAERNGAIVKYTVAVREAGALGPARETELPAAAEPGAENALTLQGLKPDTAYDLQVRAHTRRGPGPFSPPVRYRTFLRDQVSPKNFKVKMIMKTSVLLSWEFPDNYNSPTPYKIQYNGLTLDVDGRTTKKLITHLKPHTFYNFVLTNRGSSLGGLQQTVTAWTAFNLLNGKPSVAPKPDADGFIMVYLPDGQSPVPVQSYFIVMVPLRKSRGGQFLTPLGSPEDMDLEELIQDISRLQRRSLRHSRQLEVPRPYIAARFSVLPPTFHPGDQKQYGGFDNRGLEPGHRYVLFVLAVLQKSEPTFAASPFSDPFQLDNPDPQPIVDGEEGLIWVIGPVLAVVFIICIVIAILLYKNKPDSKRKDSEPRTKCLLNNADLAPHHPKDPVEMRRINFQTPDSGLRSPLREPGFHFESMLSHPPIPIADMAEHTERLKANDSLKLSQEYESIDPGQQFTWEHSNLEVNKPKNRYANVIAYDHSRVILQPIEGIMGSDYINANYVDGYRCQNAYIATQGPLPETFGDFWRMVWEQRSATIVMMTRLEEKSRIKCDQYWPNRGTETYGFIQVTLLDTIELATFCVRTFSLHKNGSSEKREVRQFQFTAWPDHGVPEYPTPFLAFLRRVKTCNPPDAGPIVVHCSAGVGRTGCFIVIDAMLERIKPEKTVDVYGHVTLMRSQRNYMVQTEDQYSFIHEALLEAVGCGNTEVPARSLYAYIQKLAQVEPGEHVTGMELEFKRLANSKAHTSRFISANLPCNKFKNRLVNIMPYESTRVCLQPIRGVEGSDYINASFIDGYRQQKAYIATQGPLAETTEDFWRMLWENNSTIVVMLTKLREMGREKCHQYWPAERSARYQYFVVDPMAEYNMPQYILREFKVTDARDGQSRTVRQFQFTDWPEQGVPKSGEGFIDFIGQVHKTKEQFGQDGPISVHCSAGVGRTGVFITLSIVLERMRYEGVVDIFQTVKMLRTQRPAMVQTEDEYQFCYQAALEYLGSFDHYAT

IC50 [1, 7] | IC50 [1, 8] | IC50 [2, 7] | IC50 [2, 8] | IC50 [3] | IC50 [4, 9] | IC50 [4, 10] | IC50 [5, 11] | IC50 [5, 12] | Structure (SMILES) | death (or euthanasia) prior to day 3 ([6]; 400 or 200 mg/kg gavage) | no observed adverse effect level (NOAEL) ([6]; mouse, single dose p.o., based on weight changes, gross pathology, histopathology, cage behaviors)
2.76 µM | 2.76 µM | 51.9 µM | 51.9 µM | 121 µM | 2.82 µM | 2.82 µM | 3.87 µM | 3.87 µM | COc1c(OCCC(C)C)cc2c(c1C=O)CC(O)OC2=O (stereo not shown) [Compound 58, 3-Hydroxy-7-(isopentyloxy)-6-methoxy-1-oxoisochromane-5-carbaldehyde] | – | –
1.8 µM | 1.8 µM | 17.8 µM | 17.8 µM | > 100 µM | 3.21 µM | 3.21 µM | 2.46 µM | 2.46 µM | COc1c(OCC=C(C)C)cc2c(c1C=O)CC(O)OC2=O (stereo not shown) [Compound 59, 3-Hydroxy-6-methoxy-7-(3-methyl-but-2-enyloxy)-1-oxo-isochroman-5-carbaldehyde] | – | –
3.36 µM | 2.85 µM | – | 32.7 µM | 24.1 µM | – | 2.76 µM | 3.03 µM | 4.52 µM | COc1c(OCC2CCC2)cc2c(c1C=O)CC(O)OC2=O (stereo not shown) [Compound 65, 7-Cyclobutylmethoxy-3-hydroxy-6-methoxy-1-oxo-isochroman-5-carbaldehyde] | – | –

Structure (SMILES) | IC50 [1, 7] | IC50 [1, 8] | IC50 [2, 7] | IC50 [2, 8] | IC50 [3] | IC50 [4, 9] | IC50 [4, 10] | IC50 [5, 11] | IC50 [5, 12] | death (or euthanasia) prior to day 3 ([6]; 400 or 200 mg/kg gavage) | no observed adverse effect level (NOAEL) ([6]; mouse, single dose p.o., based on weight changes, gross pathology, histopathology, cage behaviors)
COc1c(OCC2CCCC2)cc2c(c1C=O)CC(O)OC2=O (stereo not shown) [Compound 66, 7-Cyclopentylmethoxy-3-hydroxy-6-methoxy-1-oxo-isochroman-5-carbaldehyde] | 0.61 µM | 0.61 µM | 29.3 µM | 29.3 µM | 119 µM | – | – | 1.72 µM | 1.72 µM | none | 200 mg/kg
